From patent EP0394118B1, “2,6-Aminoheptanedioic acid unsaturated derivatives, process for their preparation and their use as medicaments” (ROUSSEL-UCLAF, priority 1989, dated 1990)

Tests used:
Test in all cases: Antibacterial activity in vitro, agar diffusion method in Davis Mingioli medium
Type in all cases: cell-based
[1] = tested on: Enterobacter cloacae 1321E; settings: 100 mg/l aqueous solution in 9 mm wells, incubation 24 h at 37°C, read-out: zones d'inhibition (diamètre en mm)
Description: (§1) L'activité antibactérienne des produits revendiqués a été déterminée par la méthode de diffusion en milieu de Davis Mingioli additionné de 1% d'agar. Les géloses utilisées sont coulées en boîtes de Petri à 48°C, après ensemencement à […] au moyen de la souche bactérienne test. Les inocula proviennent d'une pré-culture de 24 heures en bouillon de Davis Mingioli. Après durcissement des géloses, les solutions aqueuses des produits étudiés sont introduites dans des puits (9 mm) creusés dans le milieu à l'aide d'un emporte-pièce. Les zones d'inhibition observées (diamètre en mm) sont mesurées après incubation de 24 heures à 37°C.

[2] = tested on: Salmonella typhimurium MZ11; settings: Salmonella enterica, 100 mg/l aqueous solution in 9 mm wells, incubation 24 h at 37°C, read-out: zones d'inhibition (diamètre en mm)
Description: as §1

Escherichia Coli 078 = settings: COLI078, 100 mg/l aqueous solution in 9 mm wells, incubation 24 h at 37°C, read-out: zones d'inhibition (diamètre en mm)
Description: as §1

Providencia sp. DU48 = settings: 100 mg/l aqueous solution in 9 mm wells, incubation 24 h at 37°C, read-out: zones d'inhibition (diamètre en mm)
Description: as §1

SMILES | zone of inhibition at 100 µg/mL [1] | zone of inhibition at 100 µg/mL [2] | zone of inhibition at 100 µg/mL (Escherichia Coli 078) | zone of inhibition at 100 µg/mL (Providencia sp. DU48)
C=CC(N)(CC(=C)CC(N)C(=O)O)C(=O)O (stereo not drawn) [exemple 4, Acide 2,6-diamino 2-éthényl 4-méthylène heptanedioïque] | 26 mm | 31 mm | 17.5 mm | 29 mm
C=C(CC(N)C(=O)O)CC(N)(CC)C(=O)O (stereo not drawn) [exemple 7, Acide 2,6-diamino 2-éthyl 4-méthylène heptanedioïque] | 29 mm | 34 mm | 18 mm | 28 mm
C#CC(N)(CC(=C)CC(NCc1ccccc1)C(=O)O)C(=O)O (stereo not drawn) [exemple 10, Acide 2-amino 2-éthynyl 4-méthylène 6-[(phénylméthyl)amino] heptanedioïque] |  | 19 mm |  | 
